The target of assay [1] is T1, Bromodomain-containing protein 4 (Homo sapiens, UniProt O60885). The assay can be described thus: Inhibition of BRD4 (unknown origin).
The target of assay [2] is T1, Bromodomain-containing protein 4. Description: Inhibition of human BRD4 bromo domain 2 at 5 uM.
For assay [3] the target is unchanged. Description: Inhibition of human BRD4 bromo domain 2 at 0.5 uM.
The subject of a further assay is MV4-11. Description: cells. The format is functional, cell-based. The settings on record: Homo sapiens, MV4-11, 72 h.
Another assay concerns OCI-AML2. The assay can be described thus: cells. The format is functional, cell-based. The settings on record: Homo sapiens, OCI-AML2, 72 h.
A further assay deals with OCI-AML-3. The assay can be described thus: cells. The following applies: Homo sapiens, OCI-AML-3, 72 h. Type of assay: functional, cell-based.
Assay [4] has as its target T1, Bromodomain-containing protein 4. Description: Inhibition of human BRD4 bromo domain 2.
The target is the same in assay [5]. Description: Inhibition of human BRD4 bromo domain 1.
The next assay concerns the target Histone deacetylase 1 (Homo sapiens, UniProt Q13547). The assay can be described thus: Inhibition of recombinant human HDAC1 after 30 mins by fluorescence assay.

Histone deacetylase 1, sequence (Q13547 whole entry): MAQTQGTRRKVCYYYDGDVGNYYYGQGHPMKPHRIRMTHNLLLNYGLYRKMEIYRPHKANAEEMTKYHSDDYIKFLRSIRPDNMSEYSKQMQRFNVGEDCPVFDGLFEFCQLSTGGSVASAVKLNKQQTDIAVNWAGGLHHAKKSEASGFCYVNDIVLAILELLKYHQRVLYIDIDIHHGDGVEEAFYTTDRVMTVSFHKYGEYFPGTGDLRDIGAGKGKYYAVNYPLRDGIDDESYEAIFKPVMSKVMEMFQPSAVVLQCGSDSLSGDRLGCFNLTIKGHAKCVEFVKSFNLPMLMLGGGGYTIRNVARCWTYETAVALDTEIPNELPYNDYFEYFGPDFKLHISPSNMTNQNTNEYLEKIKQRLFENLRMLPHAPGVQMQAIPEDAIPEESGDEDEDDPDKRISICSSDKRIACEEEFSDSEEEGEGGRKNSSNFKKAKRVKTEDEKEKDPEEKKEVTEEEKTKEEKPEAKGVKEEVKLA
Description for MV4-11: Antiproliferative activity against human MV4-11 cells after 72 hrs by MTT assay
Description for OCI-AML-3: Antiproliferative activity against human OCI-AML3 cells after 72 hrs by MTT assay
Description for OCI-AML2: Antiproliferative activity against human OCI-AML2 cells after 72 hrs by MTT assay

`C/C=C1\NC(=O)[C@H]2CSSCC/C=C/[C@H](CC(=O)N[C@H](C(C)C)C(=O)N2)OC(=O)[C@H](C(C)C)NC1=O` [ROMIDEPSIN] had an IC50 in [1] of 36 nM.
`COc1cc(OC)c2c(=O)[nH]c(-c3cc(C)c(OC/C=C/C(=O)NO)c(C)c3)nc2c1`: the inhibition worked out at 93% in assay [2] and 41% in [3].
In the case of `COc1cc(OC)c2c(=O)[nH]c(-c3cc(C)c(OCCO)c(C)c3)nc2c1` [APABETALONE], the results for the IC50 in the assay with MV4-11, in the assay on OCI-AML2 and with OCI-AML-3 were 4480 nM, 8310 nM and 7170 nM, respectively.
For `COc1cc(OC)c2c(=O)[nH]c(-c3ccc(OCCCCCC(=O)NO)cc3)nc2c1`, in that order: 4280 nM, 13600 nM and 11100 nM.
The like results for `COc1cc(OC)c2c(=O)[nH]c(-c3ccc(OCCCCC(=O)NO)cc3)nc2c1` were, in that order, 9880 nM, 12200 nM and 9310 nM.
As to `O=C(CCCCCCC(=O)Nc1ccccc1)NO` [VORINOSTAT], the inhibition was 10% in [2] and 2% in assay [3]. Further, the midpoint of inhibition in [1], the IC50, lay at 10 nM.
With `COc1cc(OC)c2c(=O)[nH]c(-c3cc(C)c(OCCCC(=O)NO)c(C)c3)nc2c1`, the 50% inhibitory concentration (IC50) in the assay with MV4-11 is 5000 nM; with OCI-AML2 it was 4530 nM; in the assay on OCI-AML-3, 5530 nM. The figures for the inhibition in assay [2] and in assay [3] were 90% and 42%, respectively.
Consider `Cc1[nH]c2ccccc2c1CCNCc1ccc(/C=C/C(=O)NO)cc1` [PANOBINOSTAT], for which it took 5 nM to reach half-maximal inhibition in assay [1] (IC50).
`COc1cc(OC)c2c(=O)[nH]c(-c3cc(C)c(OCCCCC(=O)NO)c(C)c3)nc2c1`: the IC50 is 225 nM in assay [4]; 1670 nM in the assay on MV4-11; > 5000 nM in [5]; 32 nM at Histone deacetylase 1; 1520 nM with OCI-AML2; 1090 nM in the assay with OCI-AML-3. Also, the values for the inhibition in assay [2] and in assay [3] were 91% and 73%, respectively.
As to `COc1cc(OC)c2c(=O)[nH]c(-c3ccc(OCc4ccc(/C=C/C(=O)NO)cc4)cc3)nc2c1`, the IC50 worked out at 1970 nM in the assay on MV4-11, 1780 nM in the assay with OCI-AML2 and 1800 nM in the assay with OCI-AML-3.
Regarding `COc1cc(OC)c2c(=O)[nH]c(-c3cc(C)c(Oc4ccc(C(=O)NO)cn4)c(C)c3)nc2c1`, the half-inhibitory concentration (IC50) with MV4-11 came to 1390 nM; in the assay with OCI-AML2, 6360 nM; in the assay with OCI-AML-3, 3040 nM. Moreover, the results for the inhibition in [2] and in [3] were 93% and 51%, respectively.
In the case of `COc1cc(OC)c2c(=O)[nH]c(-c3cc(C)c(OCCCCCCCC(=O)NO)c(C)c3)nc2c1`, the figures for the IC50 in the assay with MV4-11, in the assay on OCI-AML2 and in the assay on OCI-AML-3 were 2220 nM, 2210 nM and 1830 nM, respectively. The inhibition in assay [2] turned out to be 99%; in assay [3] it was 59%.
As to `COc1cc(OC)c2c(=O)[nH]c(-c3cc(C)c(O)c(C)c3)nc2c1`, the inhibition amounted to 98% in [2] and 87% in [3].
For `COc1cc(OC)c2c(=O)[nH]c(-c3cc(C)c(OCCCCCCC(=O)NO)c(C)c3)nc2c1`, in that order: 88% and 29%.
As for `COc1cc(OC)c2c(=O)[nH]c(-c3cc(C)c(OCCCCCC(=O)NO)c(C)c3)nc2c1`, the IC50 in the assay on MV4-11 came to 920 nM; with OCI-AML2, 980 nM; in the assay with OCI-AML-3, 670 nM. Also, the inhibition was 97% in assay [2] and 90% in [3].
For the molecule `COc1cc(OC)c2c(=O)[nH]c(-c3cc(C)c(OCc4ccc(/C=C/C(=O)NO)cc4)c(C)c3)nc2c1`, the half-maximal inhibitory concentration (IC50) in assay [4] was 401 nM; in the assay with MV4-11 it was 560 nM; in [5], > 5000 nM; on Histone deacetylase 1, 204 nM; with OCI-AML2, 380 nM; in the assay on OCI-AML-3, 430 nM. The values for the inhibition in [2] and in [3] were 83% and 62%, respectively.

The values are drawn from ChEMBL document CHEMBL4043137, “Structure-based design, synthesis and in vitro antiproliferative effects studies of novel dual BRD4/HDAC inhibitors” (Bioorg Med Chem Lett, 2017).
